Consider 3 compounds from patent US6875576B2, “Method for evaluating therapeutic efficacy” (Kosan Biosciences, Inc., priority 2001, dated 2005).

The conditions of series [1]: treating gastroesophageal reflux disease; Van Her Waarde et al. 2000; cited from earlier work.
The target of series [2] is T1, C3a receptor (Homo sapiens, UniProt Q16581).
T1 construct: expressed in transfected cells; host or cells: HEK 293, transient transfection, with or without promiscuous G protein Galpha16
T1 sequence (Q16581 1-482): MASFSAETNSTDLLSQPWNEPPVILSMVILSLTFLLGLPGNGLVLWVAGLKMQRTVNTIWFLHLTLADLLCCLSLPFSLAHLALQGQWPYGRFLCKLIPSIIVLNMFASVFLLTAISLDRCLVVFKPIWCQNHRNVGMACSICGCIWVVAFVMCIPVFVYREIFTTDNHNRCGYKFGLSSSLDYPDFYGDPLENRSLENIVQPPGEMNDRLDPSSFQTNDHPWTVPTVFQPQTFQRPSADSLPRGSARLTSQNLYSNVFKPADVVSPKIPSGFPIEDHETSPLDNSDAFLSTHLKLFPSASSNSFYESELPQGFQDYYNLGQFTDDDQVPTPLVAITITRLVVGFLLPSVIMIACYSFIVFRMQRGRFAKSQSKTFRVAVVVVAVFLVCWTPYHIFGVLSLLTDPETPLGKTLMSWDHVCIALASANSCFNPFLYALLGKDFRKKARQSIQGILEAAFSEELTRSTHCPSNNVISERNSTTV
Description: Ca2+ mobilization via FLIPR. In kind it is cell-based. Here is the method: 1. 24 h after receptor transfection harvest and plate cells into poly-D-lysine-coated 96-well black-walled/clear bottom microtiter plates (Becton Dickinson Labware) at 3×10^4 cells per well.
2. After 18 to 24 h aspirate off medium and add 100 μl of fresh EMEM containing 4 μM Fluo-3/AM (Molecular Probes; prepare stock solution at 2 mM in DMSO containing 20% pluronic acid), 0.1% BSA, and […] to each well and incubate for 1 h at 37° C.
3. Aspirate medium and replace with 100 μl of the same medium, but without Fluo-3/AM, and incubate for 10 min at 37° C. Wash cells three times with a Denley cell washer (Labsystems) with Krebs Ringer Henscleit (KRH; 118 mM NaCl, 4.6 mM KCl, […] NaHCO3, 1 mM KH2PO4, 1.1 mM glucose, 1.1 mM MgCl2) containing 0.1% BSA, […], and 20 mM HEPES pH 7.4 (buffer A). After the last wash aspirate down to a final volume of 100 μl.
4. Prepare plates of potential ligands, tissue extracts, or compound libraries in 96-well polypropylene microplates at three times the final concentration in buffer A and warm to 37° C.
5. Place microplates containing Fluo-3 loaded cells and the ligand plates in FLIPR and monitor. At initiation of the fluorescence recording read measurements every 1 s for 60 s and then every 3 s for the following 60 s. […] FLIPR software normalizes fluorescent readings to give equivalent readings for all wells at zero time.
In general terms: Calcium flux is commonly read through the fluorescence of an indicator in the cells.

Series [3] can be described thus: Acid stability. In kind it is physicochemical. As to conditions: stomach environment.
The target in series [4] is T2, human motilin receptor (Homo sapiens, UniProt O43193).
T2 construct: expressed in transfected cells; host or cells: HEK293 (ATCC CRL-1573), transiently or stably transfected with pkos127-159 and pmtAEQ
Description: Efficacy index: ratio of desensitization value to potency value, motilin receptor and aequorin co-expressed. Type of series: cell-based. As to conditions: ratio of desensitization value (IC50) to potency value (EC50); cells co-expressing motilin receptor and aequorin. From the text:
In one aspect of the present invention, the comparison of the potency value and the desensitization value is accomplished by calculating a ratio of the desensitization value to the potency value. This ratio is termed the “efficacy index”. […] In other words, because the concentration required for the desired biological response is also the concentration that induces desensitization, the compound is not likely to be therapeutically effective if the desired response is receptor activation. Under these circumstances, the concentration required for the desired biological response should be well below the concentration that induces desensitization. […]
(§1) Flasks containing HEK293 cells either transiently or stably expressing the motilin receptor and aequorin were used in receptor activation assays. Cells were grown to 80-100% confluence in T175 flasks containing MEMalpha medium with 10% v/v fetal bovine serum, harvested by trypsinization, and counted using a hemocytometer. […]
Stock solutions (20 mM) of test compounds were made in ethanol and diluted 100-fold into PBS. […] One of the injectors was used to add 100 uL of the cell suspension (˜5×10^4 to 10^5) to each well, and the bioluminescence response was measured over the course of 30-60 seconds. […] The F value of the cells to each test compound was calculated using equation 1, and data were fit to equation 2 to obtain EC50 values for the test compounds. […]

Series [5] addresses T2, human motilin receptor. Description: Motilin receptor activation assay (aequorin luminescence). As to conditions: motilin receptor agonism. Type of series: cell-based.
Source text: A gene encoding the target receptor is cloned and placed into a mammalian expression vector such as pcDNA3.1. The gene may be synthetic or naturally derived. Next, pmtAEQ, an aequorin expression plasmid available from Molecular Probes, and the receptor expression construct are transfected into HEK293 cells using a commercially available transfection kit such as Lipofectamine Plus (Gibco BRL). At this point, a stable cell line may be selected from the transfection mix using common techniques, or the heterologous mixture obtained from transient transfection may be used directly. […] A 100 uL aliquot of cells is added to each well, and following each addition, the integrated luminescence is measured for 30-60 seconds and is taken as the agonist response. Next, 100 uL of 1% triton X-100 in PBS is injected into each well, and the integrated luminescence is measured a second time over 30-60 seconds and is taken as the triton response. A value F is calculated as equaled to the agonist response divided by the sum of the agonist response and the triton response. […]
as §1

T2 sequence (O43193 whole entry): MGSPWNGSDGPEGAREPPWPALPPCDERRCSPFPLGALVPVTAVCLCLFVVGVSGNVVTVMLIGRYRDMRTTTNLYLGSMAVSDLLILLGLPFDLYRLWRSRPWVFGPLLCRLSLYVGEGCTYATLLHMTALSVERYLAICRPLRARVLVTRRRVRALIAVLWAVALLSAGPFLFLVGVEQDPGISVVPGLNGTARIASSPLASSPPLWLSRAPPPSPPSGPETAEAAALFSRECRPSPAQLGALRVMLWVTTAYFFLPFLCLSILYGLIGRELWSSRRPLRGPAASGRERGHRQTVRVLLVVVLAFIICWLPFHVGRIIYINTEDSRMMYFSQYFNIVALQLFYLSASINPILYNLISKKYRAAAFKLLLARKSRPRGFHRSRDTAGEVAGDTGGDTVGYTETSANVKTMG

Consider `CC[C@H]1OC(=O)[C@H](C)[C@@H](OC2C[C@@](C)(OC)C[C@H](C)O2)[C@H](C)[C@@H](OC2O[C@H](C)C[C@H](N(C)CC)[C@H]2O)[C@]2(C)CC(C)=C(O2)[C@H](C)[C@@H](O)[C@H]1C` (stereo partly drawn) [ABT-229], for which the clinical efficacy result in series [1] was “lack of efficacy”.
C3a: ligand of the C3a receptor: the “Ca2+ mobilization response” value is “robust responses” in series [2] (C3a receptor co-expressed with Gα16 in HEK 293 cells) and “weak or no Ca^2+ mobilization responses” in series [2] (C3a receptor expressed alone in HEK 293 cells).
In the case of `CC[C@H]1OC(=O)[C@H](C)[C@@H](OC2C[C@@](C)(OC)[C@@H](O)[C@H](C)O2)[C@H](C)[C@@H](OC2O[C@H](C)C[C@H](N(C)C)[C@H]2O)[C@]2(C)CC(C)=C(O2)[C@H](C)[C@@H](O)[C@]1(C)O` (stereo partly drawn) [erythromycin 6,9-enol ether], in series [3], the stability in acid result was “unstable in acid”. In series [4], the efficacy index entry was “greater than 20,000”. Also, the “potency (EC50)” value in series [5] was “nanomolar range”.
